Reference: patent US8066971B2, “Targeting pulmonary epithelium using ADRP” (Los Angeles Biomedical Reseach Institute at Harbor UCLA …, priority 2005, dated 2011)
Entries after “also recorded” stand apart in the source; their conditions may differ. Starred links: 1 amine or outer side, 2 acyl side, 3 side chain; linkers in the order of their positions; H or OH if unused. Positions of bridges follow the written chain, without caps; N, C: chain ends. Non-standard residues stand in square brackets, D forms with d. Residues, ends and D or L forms follow the SMILES beside them. Chains are numbered I, II in the order given. Actinocin(9to1) = Cc1c2oc3c(C)ccc(C(=O)[*:1])c3nc-2c(C(=O)[*:2])c(N)c1=O; NMeV = CN[C@H](C(=O)O)C(C)C; Sar = CNCC(=O)O

Experiments:
[1] = tested on: SP-B mRNA expression by A549 cells; test: SP-B mRNA expression by A549 cells (RT-PCR); format: cell-based; conditions: actinomycin D 1 μg/ml, concomitant incubation with LDs
Method: (§1) Monolayer cultures of A549 cells were incubated with ADRP-LDs labeled with either tritium or GFP as follows: ^3H-labeled (10,000 dpm/min/20 μg triacylglycerol) ADRP-LDs were isolated from fetal rat lung fibroblasts, as described above. Where indicated, incubations were carried out in the presence of either actinomycin D or cyclohexamide to determine if de novo mRNA or protein synthesis, respectively, was involved in LD processing. Elsewhere, incubations were conducted in the presence of ADRP antibody (rabbit anti-ADRP IgG kindly provided by Dr. Constantine Londos, NIDDK) to determine the specificity of the ADRP effect on LD uptake. At the end of the incubation, the cells were processed for ^3H-satPC (Floros et al. (1987) J Biol Chem. 262(28): 13592-13598), expression of SP-B by RT-PCR and Western Blot (Rehan et al. (2002) Mol Genet Metab. 76(1): 46-56), or for confocal microscopy (see below for method).
(§2) Western blot and RT-PCR for SP-B were performed as described by Rehan et al. (2002) Mol Genet Metab. 76(1): 46-56.

[2] = tested on: SP-B protein levels in A549 cells; test: SP-B protein levels in A549 cells (Western blot); format: cell-based; conditions: cycloheximide 5 :g/ml, concomitant with ADRP-LDs
Method: as §1, §2

Structure (SMILES) | effect on ADRP induction of SP-B mRNA expression [1] | effect on ADRP-LD-stimulated SP-B protein increase [2]
Cc1c2oc3c(C)ccc(C(=O)N[C@@H]4C(=O)N[C@H](C(C)C)C(=O)N5CCC[C@H]5C(=O)N(C)CC(=O)N(C)[C@@H](C(C)C)C(=O)O[C@@H]4C)c3nc-2c(C(=O)N[C@@H]2C(=O)N[C@H](C(C)C)C(=O)N3CCC[C@H]3C(=O)N(C)CC(=O)N(C)[C@@H](C(C)C)C(=O)O[C@@H]2C)c(N)c1=O [Actinomycin D] (I: T[dV]P[Sar][NMeV] / II: T[dV]P[Sar][NMeV]; ester I:1-I:C, II:1-II:C; linker I:N-II:N via Actinocin(9to1)) | blocked | –
C[C@@H]1C[C@@H]([C@H](O)CC2CC(=O)NC(=O)C2)C(=O)[C@@H](C)C1 [cycloheximide] | – | blocked; also recorded: inhibited
